{"source": "paper PMC7490372", "about": "“Structural bases of IMiD selectivity that emerges by 5-hydroxythalidomide” (Nature Communications, 2020)", "target": "T1, cereblon (CRBN) (Homo sapiens, UniProt Q96SW2)", "T1 construct": "biotinylated CRBN (wheat cell-free); with SALL4", "T1 sequence (Q96SW2 whole entry)": "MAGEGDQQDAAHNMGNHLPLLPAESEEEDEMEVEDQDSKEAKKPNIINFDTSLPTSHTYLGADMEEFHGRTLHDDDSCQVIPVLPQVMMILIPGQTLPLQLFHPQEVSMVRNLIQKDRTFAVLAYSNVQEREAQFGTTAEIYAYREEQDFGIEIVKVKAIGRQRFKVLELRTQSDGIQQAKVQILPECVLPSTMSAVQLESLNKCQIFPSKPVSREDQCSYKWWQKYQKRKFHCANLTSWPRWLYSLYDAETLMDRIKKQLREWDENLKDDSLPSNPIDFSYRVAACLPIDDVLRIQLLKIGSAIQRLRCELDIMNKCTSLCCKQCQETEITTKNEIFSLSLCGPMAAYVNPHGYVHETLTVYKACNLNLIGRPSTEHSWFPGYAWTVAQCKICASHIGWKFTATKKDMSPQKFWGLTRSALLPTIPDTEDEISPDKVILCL", "T1 sequence (Q9UJQ4 whole entry partner)": "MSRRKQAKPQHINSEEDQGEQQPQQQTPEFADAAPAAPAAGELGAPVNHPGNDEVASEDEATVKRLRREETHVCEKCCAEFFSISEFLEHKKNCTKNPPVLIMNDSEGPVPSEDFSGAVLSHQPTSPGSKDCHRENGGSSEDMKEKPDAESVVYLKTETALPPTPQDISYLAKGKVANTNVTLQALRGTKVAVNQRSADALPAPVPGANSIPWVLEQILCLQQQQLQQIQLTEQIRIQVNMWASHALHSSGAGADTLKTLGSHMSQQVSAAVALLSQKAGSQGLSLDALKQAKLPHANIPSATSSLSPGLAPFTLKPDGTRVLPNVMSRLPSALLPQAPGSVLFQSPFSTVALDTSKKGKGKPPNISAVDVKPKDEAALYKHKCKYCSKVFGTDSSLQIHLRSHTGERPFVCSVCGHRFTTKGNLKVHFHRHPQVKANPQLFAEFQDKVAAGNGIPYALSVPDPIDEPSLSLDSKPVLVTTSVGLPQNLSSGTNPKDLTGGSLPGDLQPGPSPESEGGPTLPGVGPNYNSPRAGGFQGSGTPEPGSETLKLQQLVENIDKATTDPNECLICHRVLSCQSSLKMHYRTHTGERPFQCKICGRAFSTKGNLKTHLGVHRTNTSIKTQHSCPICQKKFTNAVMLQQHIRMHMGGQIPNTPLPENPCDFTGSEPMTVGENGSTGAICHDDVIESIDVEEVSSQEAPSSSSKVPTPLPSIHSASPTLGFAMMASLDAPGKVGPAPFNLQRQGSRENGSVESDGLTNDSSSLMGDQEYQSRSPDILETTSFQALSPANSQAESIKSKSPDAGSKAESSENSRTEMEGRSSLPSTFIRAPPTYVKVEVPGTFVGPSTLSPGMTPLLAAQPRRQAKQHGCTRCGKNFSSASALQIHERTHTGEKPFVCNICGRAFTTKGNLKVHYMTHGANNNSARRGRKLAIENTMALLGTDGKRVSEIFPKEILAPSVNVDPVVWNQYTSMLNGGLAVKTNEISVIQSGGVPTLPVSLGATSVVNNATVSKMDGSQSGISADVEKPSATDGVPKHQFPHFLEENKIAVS", "experiment": "AlphaScreen-based ternary complex formation, dose-dependent, in cell-free translation mixtures"}
{"smiles": "Nc1c(O)ccc2c1C(=O)N(C1CCC(=O)NC1=O)C2=O", "note": "(stereo not shown) [5HP, 5-hydroxypomalidomide]", "values": [{"measurement": "AlphaScreen-based ternary complex formation, dose-dependent, in cell-free transl", "result": "Dose-dependent interaction of CRBN with SALL4 (left) and IKZF1 (right), as observed with the titration of racemate, Pom, and 5HP"}]}
